Test results reported in US11878975B2, “Substituted indole compounds useful as TLR inhibitors” (BRISTOL-MYERS SQUIBB COMPANY, priority 2017, dated 2024).

Legend:
Assay type in all cases: cell-based
human TLR7 = target: T1, human TLR7 (Homo sapiens, UniProt Q9NYK1); assay: TLR7 inhibition reporter assay (HEK-Blue cells, SEAP reporter, gardiquimod stimulation); details: HEK-Blue cells overexpressing human TLR7, SEAP reporter, gardiquimod 7.5 μM
T1 construct: host or cells: HEK-Blue cells
T1 sequence (Q9NYK1 27-1049): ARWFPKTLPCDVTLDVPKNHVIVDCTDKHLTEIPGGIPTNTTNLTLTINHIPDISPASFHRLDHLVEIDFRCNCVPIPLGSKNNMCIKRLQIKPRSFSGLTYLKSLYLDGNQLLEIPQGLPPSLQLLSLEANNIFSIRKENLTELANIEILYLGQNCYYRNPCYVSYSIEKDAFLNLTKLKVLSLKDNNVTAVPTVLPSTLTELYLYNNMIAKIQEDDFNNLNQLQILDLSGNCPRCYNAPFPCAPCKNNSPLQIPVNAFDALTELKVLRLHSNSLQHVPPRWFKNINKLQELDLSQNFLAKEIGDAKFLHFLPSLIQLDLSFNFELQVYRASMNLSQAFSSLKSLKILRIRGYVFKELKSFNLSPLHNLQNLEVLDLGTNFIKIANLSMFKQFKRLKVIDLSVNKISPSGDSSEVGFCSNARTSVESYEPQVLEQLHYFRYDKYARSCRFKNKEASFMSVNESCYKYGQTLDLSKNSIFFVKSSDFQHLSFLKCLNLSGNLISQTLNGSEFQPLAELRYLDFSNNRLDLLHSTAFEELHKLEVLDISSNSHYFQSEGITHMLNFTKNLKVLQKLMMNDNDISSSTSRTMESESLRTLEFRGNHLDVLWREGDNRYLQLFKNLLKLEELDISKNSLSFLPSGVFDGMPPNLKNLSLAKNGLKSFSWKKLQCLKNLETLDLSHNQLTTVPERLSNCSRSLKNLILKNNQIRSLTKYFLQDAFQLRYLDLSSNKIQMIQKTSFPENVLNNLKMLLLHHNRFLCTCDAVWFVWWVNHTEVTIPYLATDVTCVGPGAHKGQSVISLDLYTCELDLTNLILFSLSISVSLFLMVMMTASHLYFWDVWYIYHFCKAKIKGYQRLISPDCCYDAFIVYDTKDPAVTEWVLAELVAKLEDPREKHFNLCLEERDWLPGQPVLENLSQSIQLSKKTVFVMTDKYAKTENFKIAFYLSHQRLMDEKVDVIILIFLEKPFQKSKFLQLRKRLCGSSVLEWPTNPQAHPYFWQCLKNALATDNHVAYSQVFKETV
Summary of the method: (§1)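 SEAP readout after 22 h agonist exposure at 37 °C; final agonist levels were 7.5 μM gardiquimod (TLR7), 15.9 μM R848 (TLR8) and 5 nM ODN2006 (TLR9). Inhibitors, spanning 0.05 nM to 50 μM final, were applied 30 min beforehand.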

human TLR8 = target: T2, human TLR8 (Homo sapiens, UniProt Q9NR97); assay: TLR8 inhibition reporter assay (HEK-Blue cells, SEAP reporter, R848 stimulation); details: HEK-Blue cells overexpressing human TLR8, SEAP reporter, R848 15.9 μM
T2 construct: host or cells: HEK-Blue cells
T2 sequence (Q9NR97 27-1041): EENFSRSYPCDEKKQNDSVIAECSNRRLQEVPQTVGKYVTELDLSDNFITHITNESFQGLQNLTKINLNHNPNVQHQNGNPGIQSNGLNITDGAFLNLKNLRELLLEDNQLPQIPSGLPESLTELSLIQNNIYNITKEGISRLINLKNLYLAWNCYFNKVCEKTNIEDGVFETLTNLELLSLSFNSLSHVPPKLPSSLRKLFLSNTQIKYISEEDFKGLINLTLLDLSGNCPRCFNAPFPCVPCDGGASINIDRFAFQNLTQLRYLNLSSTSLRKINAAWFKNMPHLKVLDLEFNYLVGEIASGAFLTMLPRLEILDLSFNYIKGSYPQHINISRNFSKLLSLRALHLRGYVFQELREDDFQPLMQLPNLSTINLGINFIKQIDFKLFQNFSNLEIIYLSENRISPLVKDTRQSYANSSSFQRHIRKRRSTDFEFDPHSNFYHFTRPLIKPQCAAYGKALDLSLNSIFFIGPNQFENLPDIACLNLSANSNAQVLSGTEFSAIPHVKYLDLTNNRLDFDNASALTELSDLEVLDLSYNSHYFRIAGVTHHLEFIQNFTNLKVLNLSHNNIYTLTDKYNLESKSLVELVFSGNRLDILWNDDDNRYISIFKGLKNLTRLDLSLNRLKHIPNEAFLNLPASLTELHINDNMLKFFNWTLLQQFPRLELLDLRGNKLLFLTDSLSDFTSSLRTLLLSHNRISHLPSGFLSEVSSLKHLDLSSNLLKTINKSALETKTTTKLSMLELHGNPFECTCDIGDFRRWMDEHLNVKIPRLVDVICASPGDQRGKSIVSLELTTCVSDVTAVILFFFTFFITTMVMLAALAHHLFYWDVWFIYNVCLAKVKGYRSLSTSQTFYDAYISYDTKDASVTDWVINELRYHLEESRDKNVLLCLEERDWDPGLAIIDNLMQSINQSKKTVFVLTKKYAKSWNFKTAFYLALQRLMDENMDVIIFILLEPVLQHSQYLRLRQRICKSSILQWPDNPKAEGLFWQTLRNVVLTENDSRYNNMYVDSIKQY
Summary of the method: as §1

human TLR9 = target: T3, human TLR9 (Homo sapiens, UniProt Q9NR96); assay: TLR9 inhibition reporter assay (HEK-Blue cells, SEAP reporter, ODN2006 stimulation); details: HEK-Blue cells overexpressing human TLR9, SEAP reporter, ODN2006 5 nM
T3 construct: host or cells: HEK-Blue cells
T3 sequence (Q9NR96 26-1032): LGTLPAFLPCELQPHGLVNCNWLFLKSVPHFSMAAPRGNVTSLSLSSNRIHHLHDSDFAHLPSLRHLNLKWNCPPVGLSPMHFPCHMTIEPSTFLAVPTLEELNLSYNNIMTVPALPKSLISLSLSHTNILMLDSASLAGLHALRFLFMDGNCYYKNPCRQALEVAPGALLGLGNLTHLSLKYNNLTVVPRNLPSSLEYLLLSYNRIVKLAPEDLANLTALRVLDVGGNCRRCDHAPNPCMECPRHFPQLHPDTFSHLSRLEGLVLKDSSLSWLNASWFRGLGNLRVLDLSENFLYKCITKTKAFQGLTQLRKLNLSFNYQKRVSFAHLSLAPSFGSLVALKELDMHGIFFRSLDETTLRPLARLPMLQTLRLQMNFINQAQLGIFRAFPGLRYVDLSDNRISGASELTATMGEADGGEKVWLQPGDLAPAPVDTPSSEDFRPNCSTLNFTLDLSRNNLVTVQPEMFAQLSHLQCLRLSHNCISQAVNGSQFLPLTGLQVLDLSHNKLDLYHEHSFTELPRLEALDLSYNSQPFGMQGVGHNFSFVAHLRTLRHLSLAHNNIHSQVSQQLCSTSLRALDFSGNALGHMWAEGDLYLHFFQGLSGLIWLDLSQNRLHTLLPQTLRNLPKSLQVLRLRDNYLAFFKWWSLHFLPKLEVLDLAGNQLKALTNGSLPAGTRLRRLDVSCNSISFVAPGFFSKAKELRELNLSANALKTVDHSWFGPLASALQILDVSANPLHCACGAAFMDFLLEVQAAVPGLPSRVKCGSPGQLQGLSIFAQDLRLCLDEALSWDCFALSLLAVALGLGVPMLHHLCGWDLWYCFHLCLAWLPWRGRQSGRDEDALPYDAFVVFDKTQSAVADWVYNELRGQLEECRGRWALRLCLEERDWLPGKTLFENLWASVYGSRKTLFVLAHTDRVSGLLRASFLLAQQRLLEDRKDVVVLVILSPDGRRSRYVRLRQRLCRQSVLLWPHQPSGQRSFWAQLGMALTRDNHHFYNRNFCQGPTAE
Summary of the method: as §1

Cc1c(-c2[nH]c3ccc(C4CNC(C)(C)CO4)cc3c2C(C)C)cn2ncnc2c1C (stereo not drawn) [Example 371]
IC50 (human TLR7): 0.92 nM | IC50 (human TLR8): 1.3 nM | IC50 (human TLR9): 15500 nM

CCc1c(-c2ccc(OC)c(OC)c2)[nH]c2ccc(CN3CCNCC3)cc12 [Example 390, 2-(3,4-dimethoxyphenyl)-3-ethyl-5-(piperazin-1-ylmethyl)-1H-indole]
IC50 (human TLR7): 138 nM | IC50 (human TLR8): 73 nM | IC50 (human TLR9): 5880 nM

CNC(=O)CN1CCOC(c2ccc3[nH]c(-c4cn5ncnc5c(C)c4C)c(C(C)C)c3c2)C1 (stereo not drawn) [Example 311]
IC50 (human TLR7): 17 nM | IC50 (human TLR8): 38 nM | IC50 (human TLR9): > 50000 nM

Cc1cc(-c2[nH]c3ccc(C4CCCN(C(=O)[C@@H]5CCN5)C4)cc3c2C(C)C)cc(C)n1 (stereo partly drawn) [Example 218]
IC50 (human TLR7): 15 nM | IC50 (human TLR8): 80 nM | IC50 (human TLR9): 699 nM

COc1cc(-c2[nH]c3ccc(C4CCC(N5CCNC(=O)C5)CC4)cc3c2C(C)C)cn2ncnc12 (stereo not drawn) [Example 78]
IC50 (human TLR7): 3 nM | IC50 (human TLR8): 32 nM | IC50 (human TLR9): 16800 nM

COc1cc(-c2[nH]c3ccc(C4CCC(NC(=O)CN(C)C)CC4)cc3c2C(C)C)cn2ncnc12 (stereo not drawn) [Example 127]
IC50 (human TLR7): 2 nM | IC50 (human TLR8): 3.2 nM | IC50 (human TLR9): 3160 nM

CNC(=O)CN1CCOC(c2ccc3[nH]c(-c4cc(C)nc(C)c4)c(C(C)C)c3c2)C1 (stereo not drawn) [Example 325]
IC50 (human TLR7): 29 nM | IC50 (human TLR8): 21 nM | IC50 (human TLR9): 36800 nM

COc1cc(-c2[nH]c3ccc(C4CC(N(C)C(=O)CN(C)C)C4)cc3c2C(C)C)cn2ncnc12 (stereo not drawn) [Example 585]
IC50 (human TLR7): 0.55 nM | IC50 (human TLR8): 2.9 nM | IC50 (human TLR9): 2810 nM

Cc1cc(-c2[nH]c3ccc(C4CCC(N(C)C)CC4)cc3c2C(C)C)cc(C)n1 (single isomer, unassigned) [Example 114]
IC50 (human TLR7): 4 nM | IC50 (human TLR8): 20 nM | IC50 (human TLR9): 515 nM

COc1cc(-c2[nH]c3ccc(C4CCC(N5CC(F)(F)C5)CC4)cc3c2C(C)C)cn2ncnc12 (stereo not drawn) [Example 19]
IC50 (human TLR7): 26 nM | IC50 (human TLR8): 218 nM | IC50 (human TLR9): 29200 nM

Cc1cc(-c2[nH]c3ccc(CCN4CCOCC4)cc3c2C(C)C)cn(C)c1=O [Example 403]
IC50 (human TLR7): 36 nM | IC50 (human TLR8): 7.5 nM | IC50 (human TLR9): 23000 nM

COc1cc(-c2[nH]c3ccc(C4CCCN(C5COC5)C4)cc3c2C(C)C)cn2ncnc12 (stereo not drawn) [Example 242]
IC50 (human TLR7): 8 nM | IC50 (human TLR8): 2.4 nM | IC50 (human TLR9): 25400 nM

COc1cc(-c2[nH]c3ccc(C4CCC(NC(=O)CN5CCOCC5)CC4)cc3c2C(C)C)cn2ncnc12 (stereo not drawn) [Example 142]
IC50 (human TLR7): 2 nM | IC50 (human TLR8): 14 nM | IC50 (human TLR9): 4410 nM

Cc1cc(-c2[nH]c3ccc(C4CCC(N5CCOCC5)CC4)cc3c2C(C)C)cn2ncnc12 (stereo not drawn) [Example 103]
IC50 (human TLR7): 2 nM | IC50 (human TLR8): 7.4 nM | IC50 (human TLR9): 4120 nM

COc1cc(-c2[nH]c3ccc(C4CN(C(C)C)CCO4)cc3c2C(C)C)cn2ncnc12 (stereo not drawn) [Example 302]
IC50 (human TLR7): 2 nM | IC50 (human TLR8): 0.42 nM | IC50 (human TLR9): 2600 nM

CNC(=O)CNC1CCC(c2ccc3[nH]c(-c4cc(C)nc(C)c4)c(C(C)C)c3c2)CC1 (single isomer, unassigned) [Example 179, 2-((4-(2-(2,6-dimethylpyridin-4-yl)-3-isopropyl-1H-indol-5-yl)cyclohexyl)amino)-N-methylacetamide]
IC50 (human TLR7): 2 nM | IC50 (human TLR8): 3.5 nM | IC50 (human TLR9): 767 nM

Cc1c(-c2[nH]c3ccc(C4CCC(NCC(=O)N(C)C)CC4)cc3c2C(C)C)cn(C)c(=O)c1C (stereo not drawn) [Example 480]
IC50 (human TLR7): 20 nM | IC50 (human TLR8): 6.3 nM | IC50 (human TLR9): 6200 nM

CNCC(=O)NC1CCC(c2ccc3[nH]c(-c4cc(C)nc(C)c4)c(C(C)C)c3c2)CC1 (single isomer, unassigned) [Example 130]
IC50 (human TLR7): 5 nM | IC50 (human TLR8): 33 nM | IC50 (human TLR9): 236 nM

Cc1cc(-c2[nH]c3ccc(C4CCC(O)CC4)cc3c2C(C)C)ccn1 (stereo not drawn) [Example 173]
IC50 (human TLR7): 46 nM | IC50 (human TLR8): 56 nM | IC50 (human TLR9): > 50000 nM

Cc1c(-c2[nH]c3ccc(C4CCC(NC5COC5)CC4)cc3c2C(C)C)cn(C)c(=O)c1C (stereo not drawn) [Example 478]
IC50 (human TLR7): 20 nM | IC50 (human TLR8): 7.6 nM | IC50 (human TLR9): 10200 nM

CNC(=O)CN1CC(c2ccc3[nH]c(-c4cn5ncnc5c(C)c4C)c(C(C)C)c3c2)C1 [Example 552]
IC50 (human TLR7): 4 nM | IC50 (human TLR8): 3.4 nM | IC50 (human TLR9): 5570 nM

Cc1cc(-c2[nH]c3ccc([C@H]4C[C@H]4C(=O)NC4CCC5CNCC54)cc3c2C(C)C)ccn1 (stereo partly drawn) [Example 453]
IC50 (human TLR7): 77 nM | IC50 (human TLR8): 66 nM | IC50 (human TLR9): 191 nM

Cc1c(-c2[nH]c3ccc(C4CN(CC(=O)N(C)C)C(C)(C)CO4)cc3c2C(C)C)cn2ncnc2c1C (stereo not drawn) [Example 387]
IC50 (human TLR7): 86 nM | IC50 (human TLR8): 44 nM | IC50 (human TLR9): > 50000 nM

COc1cc(-c2[nH]c3ccc(C4CCC(NC(=O)CC(F)(F)F)CC4)cc3c2C(C)C)cn2ncnc12 (stereo not drawn) [Example 118, 3,3,3-trifluoro-N-(4-(3-isopropyl-2-(8-methoxy-[1,2,4]triazolo[1,5-a]pyridin-6-yl)-1H-indol-5-yl)cyclohexyl)propanamide]
IC50 (human TLR7): 2 nM | IC50 (human TLR8): 22 nM | IC50 (human TLR9): 15600 nM
